Here are results for 56 compounds from the Kinase Knowledgebase extract (Sharma et al. 2016).

This assay has as its target PIK3CA (human) (UniProt P42336). The experiment in a line: Inhibition of PIK3CA Kinase Activity.

SMILES strings stand for the structures. Where only a bound is given, the exact number is not on record here.

Chain of PIK3CA (human) (P42336 whole entry, looked up): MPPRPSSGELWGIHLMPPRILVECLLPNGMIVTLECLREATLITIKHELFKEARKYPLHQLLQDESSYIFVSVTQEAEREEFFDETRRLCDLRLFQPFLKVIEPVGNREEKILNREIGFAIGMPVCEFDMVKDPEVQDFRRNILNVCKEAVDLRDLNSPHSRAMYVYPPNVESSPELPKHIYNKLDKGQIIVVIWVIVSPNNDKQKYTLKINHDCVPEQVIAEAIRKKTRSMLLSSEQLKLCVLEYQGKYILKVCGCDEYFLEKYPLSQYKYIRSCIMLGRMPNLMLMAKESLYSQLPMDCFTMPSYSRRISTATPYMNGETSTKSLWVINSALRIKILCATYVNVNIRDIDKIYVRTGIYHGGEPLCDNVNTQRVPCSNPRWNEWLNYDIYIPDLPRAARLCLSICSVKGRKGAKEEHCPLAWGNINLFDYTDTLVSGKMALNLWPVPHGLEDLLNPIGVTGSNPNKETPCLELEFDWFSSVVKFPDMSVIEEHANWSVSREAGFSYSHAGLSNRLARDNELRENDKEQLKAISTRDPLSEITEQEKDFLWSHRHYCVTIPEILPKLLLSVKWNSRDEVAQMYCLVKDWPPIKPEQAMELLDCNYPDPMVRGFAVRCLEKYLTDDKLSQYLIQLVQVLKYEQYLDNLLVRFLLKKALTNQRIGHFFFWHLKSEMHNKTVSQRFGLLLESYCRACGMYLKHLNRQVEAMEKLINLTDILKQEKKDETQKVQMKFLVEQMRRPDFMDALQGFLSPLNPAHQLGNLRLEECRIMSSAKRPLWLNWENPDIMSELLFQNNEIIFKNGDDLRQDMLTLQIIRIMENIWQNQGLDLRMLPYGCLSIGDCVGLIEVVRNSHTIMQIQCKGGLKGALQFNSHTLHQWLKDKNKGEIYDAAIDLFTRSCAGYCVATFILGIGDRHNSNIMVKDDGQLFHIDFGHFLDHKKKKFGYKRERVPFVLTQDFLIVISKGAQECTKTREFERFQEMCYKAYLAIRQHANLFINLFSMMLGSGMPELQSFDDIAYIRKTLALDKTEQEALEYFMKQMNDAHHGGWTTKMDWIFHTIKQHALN

What is called IC50 is the concentration needed to halve the response being measured. Read a low IC50 as greater potency. `C=Cc1nc2c(c(N3CCOc4ccc(-c5cnc6[nH]c(C)nc6c5)cc4C3)n1)CC(C)(C)CC2`: the IC50 fell in the range of 50 to 250 nM. Under `CNCCN(C)c1ncnc(N2CCOc3ccc(-c4cnc5nc(C6CC6)[nH]c5c4)cc3C2)c1C` stands 250 to 1000 nM. Consider `Cc1nc2ccc(-c3ccc4c(c3)CN(c3nc(CNC5CCC5)nc5c3CC(C)(C)CC5)CCO4)cc2[nH]1`, for which the IC50 fell in the range of 10 to 50 nM. Regarding `Cc1c(NC2CCN(C)CC2)ncnc1N1CCOc2ccc(-c3cnc4nc(C5CC5)[nH]c4c3)cc2C1`, the IC50 lay in the range of 10 to 50 nM.

The compound `Cc1nc2c(c(N3CCOc4ccc(-c5cnc(N)c(S(=O)(=O)NCC6CCN(C)CC6)c5)cc4C3)n1)CC(C)(C)CC2` came in with an IC50 of 50 to 250 nM. For `CCS(=O)(=O)c1cc(-c2ccc3c(c2)CN(c2ncnc4c2CC(C)(C)CC4)CCO3)cnc1N`, the IC50 lay within 10 to 50 nM. For `CC1(C)CCc2ncnc(N3CCOc4ccc(-c5cnc(N)c(S(=O)(=O)NC6CCC6)c5)cc4C3)c2C1`, the IC50 lay in the range of 10 to 50 nM.

As for `Cc1nc2cc(-c3ccc4c(c3)CN(c3nc(N)nc(C)c3Cc3ccc(F)cc3)CCO4)cnc2[nH]1`, the IC50 is not above 10 nM. Consider `CC1(C)C=Cc2ncnc(N3CCOc4ccc(-c5cnc6nc(C7CC7)[nH]c6c5)cc4C3)c2C1`, for which the IC50 is 10 to 50 nM. Under `Cc1ncnc(N2CCOc3ccc(-c4ccc5nc(N)ncc5c4)cc3C2)c1Cc1ccc(F)cc1` stands 250 to 1000 nM; under `CN1CC[C@H](CNS(=O)(=O)c2cc(-c3ccc4c(c3)CN(c3ncnc5c3CC(C)(C)CC5)CCO4)cnc2N)C1`, 50 to 250 nM; under `Cc1nc2cc(-c3ccc4c(c3)CN(c3nc(CN5CCCC5)nc5c3CC(C)(C)CC5)CCO4)ccc2[nH]1`, not above 10 nM. Turning to `Cc1nc2cc(-c3ccc4c(c3)CN(c3nc(CO)nc(C)c3Cc3ccc(F)cc3)CCO4)ccc2[nH]1`, the IC50 was not above 10 nM. `CCNc1nc2ccc(-c3ccc4c(c3)CN(c3nc(CC)nc5ccccc35)CCO4)cc2[nH]1`: the IC50 fell in the range of 10 to 50 nM. For the compound `Cc1nc2ccc(-c3ccc4c(c3)CN(c3ncnc(Nc5ccccc5)c3C)CCO4)cc2[nH]1`, the IC50 lay within 50 to 250 nM.

Regarding `CC1(C)CCc2ncnc(N3CCOc4ccc(-c5ccc6[nH]c(C(F)F)nc6c5)cc4C3)c2C1`, the IC50 was 10 to 50 nM.

With `COc1c(O)ccc2c(N3CCOc4ccc(-c5ccc6nc(C)[nH]c6c5)cc4C3)ncnc12`, the IC50 was 10 to 50 nM. As for `Cc1nc2ncc(-c3ccc4c(c3)CN(c3nc(CN(C)C)nc5c3CC(C)(C)CC5)CCO4)cc2[nH]1`, the IC50 is not above 10 nM. The value for `Cc1nc2ccc(-c3ccc4c(c3)CN(c3ccnc(N)n3)CCO4)cc2[nH]1` was 250 to 1000 nM. For `CC1(C)CCc2ncnc(N3CCOc4ccc(-c5ccc(Cl)c(NS(C)(=O)=O)c5)cc4C3)c2C1`, the IC50 lay in the range of 250 to 1000 nM. Turning to `CCNCc1nc2c(c(N3CCOc4ccc(-c5ccc6nc(C)[nH]c6c5)cc4C3)n1)CC(C)(C)CC2`, the IC50 is not above 10 nM. Turning to `COc1ccc2c(N3CCOc4ccc(-c5cnc(N)s5)cc4C3)nc(C)nc2c1`, the IC50 was not above 10 nM. Turning to `Cc1nc2ncc(-c3ccc4c(c3)CN(c3nc(CNC(C)(C)C)nc5c3CC(C)(C)CC5)CCO4)cc2[nH]1`, the IC50 was in the range of 10 to 50 nM. Consider `CC[C@H]1CCc2c(ncnc2N2CCOc3ccc(-c4cnc(N)c(S(=O)(=O)N5CC[C@@H](N)C5)c4)cc3C2)C1`, for which the IC50 is 10 to 50 nM.

In turn, `Cc1nc2cc(-c3ccc4c(c3)CN(c3nc(CN(C)C)nc5c3CC(C)(C)CC5)CCO4)c(F)cc2[nH]1` registered an IC50 of 50 to 250 nM. Turning to `CC1(C)CCc2ncnc(N3CCOc4ccc(-c5cnc(N)c(S(=O)(=O)N[C@H]6CC[C@H](N)CC6)c5)cc4C3)c2C1`, the IC50 lay in the range of 10 to 50 nM.

`Cc1nc2ccc(-c3ccc4c(c3)CN(c3ccnc5cc(F)ccc35)CCO4)cc2[nH]1` had an IC50 not above 10 nM. Regarding `CCNc1nc2ccc(-c3ccc4c(c3)CN(c3ncnc(NCC)c3C)CCO4)cc2[nH]1`, the IC50 is not above 10 nM. In turn, `CC(C)NS(=O)(=O)c1cc(-c2ccc3c(c2)CN(c2ncnc4c2CC(C)(C)CC4)CCO3)cnc1N` had an IC50 not above 10 nM. With `Cc1ncnc(N2CCOc3ccc(-c4ccc5sc(N)nc5n4)cc3C2)c1Cc1ccc(F)cc1`, the IC50 was 10 to 50 nM. The value for `Cc1nc(N)nc(N2CCOc3ccc(-c4cnc5sc(N)nc5c4)cc3C2)c1Cc1ccc(F)cc1` was not above 10 nM. In turn, `Cc1nc2ccc(-c3ccc4c(c3)CN(c3ncnc5ccc(Cl)cc35)CCO4)cc2[nH]1` registered an IC50 of 10 to 50 nM.

The compound `Cc1nc2ccc(-c3ccc4c(c3)CN(c3ncnc(C)c3Cc3ccc(C(F)(F)F)cc3)CCO4)cc2[nH]1` registered a half-maximal inhibitory concentration (IC50) of 10 to 50 nM.

Compound `Cc1nc(N)sc1-c1ccc2c(c1)CN(c1ncnc(C)c1Cc1ccc(F)cc1)CCO2` returned an IC50 of 250 to 1000 nM. In the case of `CC(=O)OCc1nc(C)c(C(C)C)c(N2CCOc3ccc(-c4ccc5nc(C)[nH]c5c4)cc3C2)n1`, the 50% inhibitory concentration (IC50) lay within 50 to 250 nM.

Turning to `Cc1nc2ccc(-c3ccc4c(c3)CN(c3ncnc5c(C#N)c6n(c35)CCCC6)CCO4)cc2[nH]1`, the IC50 fell in the range of 50 to 250 nM.

In turn, `Cc1nc2ncc(-c3ccc4c(c3)CN(c3ncnc5c3CCC(CO)C5)CCO4)cc2[nH]1` (stereo unspecified) displayed an IC50 of 10 to 50 nM. The compound `COC(=O)Nc1nc2ccc(-c3ccc4c(c3)CN(c3nccc5ccccc35)CCO4)cc2[nH]1` had an IC50 of 50 to 250 nM. `Nc1nc2ncc(-c3ccc4c(c3)CN(c3ncnc5ccc(I)cc35)CCO4)cc2[nH]1` displayed an IC50 not above 10 nM. `COCc1nc2ccc(-c3ccc4c(c3)CN(c3ccnc5ccccc35)CCO4)cc2[nH]1` gave an IC50 of 250 to 1000 nM.

As for `CC(CO)NS(=O)(=O)c1cc(-c2ccc3c(c2)CN(c2ncnc4c2CC(C)(C)CC4)CCO3)cnc1N` (stereo unspecified), the IC50 is not above 10 nM.

In the case of `Cc1nc2ncc(-c3ccc4c(c3)CN(c3nc(CNS(C)(=O)=O)nc5c3CC(C)(C)CC5)CCO4)cc2[nH]1`, the IC50 is not above 10 nM. The compound `CN(C)Cc1nc2c(c(N3CCOc4ccc(-c5ccc6scnc6c5)cc4C3)n1)CC(C)(C)CC2` had an IC50 of 250 to 1000 nM. For the compound `Cc1ncnc(N2CCOc3ccc(-c4cnc5nc(N)[nH]c5c4)cc3C2)c1Cc1ccc(F)cc1`, the IC50 is not above 10 nM. Compound `C=CCc1c(C)nc(CN(C)C)nc1N1CCOc2ccc(-c3ccc4nc(C)[nH]c4c3)cc2C1` gave an IC50 not above 10 nM. Under `Nc1nc2ncc(-c3ccc4c(c3)CN(c3ncnc5cc(Cl)c(Br)cc35)CCO4)cc2[nH]1` stands not above 10 nM; under `Cc1nc2ccc(-c3ccc4c(c3)CN(c3ncnc5c3CC(C)C5)CCO4)cc2[nH]1` (stereo unspecified), 50 to 250 nM; under `COc1ccc2c(N3CCOc4ccc(-c5cnc6nc[nH]c6c5)cc4C3)nc(C)nc2c1`, not above 10 nM.

The compound `Cc1nc2ccc(-c3ccc4c(c3)CN(c3ncnc5ccc(I)cc35)CCO4)cc2[nH]1` yielded an IC50 of 50 to 250 nM. For `CC1(C)CCc2ncnc(N3CCOc4ccc(-c5cnc(N)c(S(=O)(=O)N[C@H]6CCNC6)c5)cc4C3)c2C1`, the IC50 was 10 to 50 nM. Consider `COC(=O)Nc1nc2ncc(-c3ccc4c(c3)CN(c3ncnc(C)c3Cc3ccc(F)cc3)CCO4)cc2[nH]1`, for which the IC50 was not above 10 nM. In turn, `Cc1nc2ccc(-c3ccc4c(c3)CN(c3ncnc5c(C)cccc35)CCO4)cc2[nH]1` yielded an IC50 of 10 to 50 nM. The value for `CCC1CCc2ncnc(N3CCOc4ccc(-c5cnc6nc(N)[nH]c6c5)cc4C3)c2C1` (stereo unspecified) was not above 10 nM; that for `O=C(CCCN1CCCCC1)Nc1nc2ccc(-c3ccc4c(c3)CN(c3ccnc5ccccc35)CCO4)cc2[nH]1` was 50 to 250 nM. `COc1ccc(-c2ccc3c(c2)CN(c2nc(CN(C)C)nc4c2CC(C)(C)CC4)CCO3)cc1OC(F)F` returned an IC50 of 10 to 50 nM. In the case of `COc1ccc(-c2ccc3c(c2)CN(c2nc(CN(C)C)nc4c2CC(C)(C)CC4)CCO3)cc1C(C)=O`, the IC50 lay in the range of 250 to 1000 nM.
